The source of these data is patent US11498903B2 (BRISTOL-MYERS SQUIBB COMPANY, priority 2017, dated 2022).

Read-outs that look alike come from different tables or passages of the source.

The assay deals with T1, human APJ receptor (Homo sapiens, UniProt P35414).
T1 construct: expressed in transfected cells
T1 sequence (P35414 1-380): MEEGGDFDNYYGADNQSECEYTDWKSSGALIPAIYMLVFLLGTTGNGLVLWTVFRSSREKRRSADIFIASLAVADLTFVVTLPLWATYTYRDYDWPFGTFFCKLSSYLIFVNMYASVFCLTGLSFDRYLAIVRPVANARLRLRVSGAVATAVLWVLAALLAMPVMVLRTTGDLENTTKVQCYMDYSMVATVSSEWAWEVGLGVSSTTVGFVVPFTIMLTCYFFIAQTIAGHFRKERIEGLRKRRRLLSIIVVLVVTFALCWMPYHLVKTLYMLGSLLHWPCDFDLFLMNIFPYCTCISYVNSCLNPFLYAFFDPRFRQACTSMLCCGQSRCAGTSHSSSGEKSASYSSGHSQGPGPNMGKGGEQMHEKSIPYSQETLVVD
Kind of assay: Intracellular cAMP accumulation assay (APJ hcAMP, HTRF). In kind it is cell-based. The note with it: HEK293 cells stably expressing human APJ receptor. The procedure, abridged:
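Inhibition of 2 μM forskolin-driven cAMP ([…] present) measured by HTRF in 5,000 HEK293 cells/well stably expressing human APJ, 30 min, room temperature. EC50 came from a variable-slope sigmoidal fit; Ymax was relative to (Pyr1)apelin-13 set at 100%.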
(Cyclic AMP is a second messenger, typically raised through Gs and lowered through Gi signalling.)

Where [1] appears, read: Table 1, inhibition of forskolin-mediated cAMP production, read-out: APJ hcAMP EC50.
[2] abbreviates: Table 3, read-out: APJ cAMP Human EC50.

By EC50 is commonly meant the concentration needed to bring the measured effect to its halfway point. In the case of `COc1cc2[nH]c(-c3cccc(Cl)c3-c3ccc(C(=O)NC(C)C)cc3C(=O)O)nc2cc1F` [Example 109, (S)-2′-chloro-6′-(5-fluoro-6-methoxy-1H-1,3-benzodiazol-2-yl)-4-[(propan-2-yl)carbamoyl]-[1,1′-biphenyl]-2-carboxylic acid], the EC50 was in the range of 10 to 100 nM under setting [1] and 10 to 100 nM under setting [2].

In the case of `COc1cc2[nH]c(-c3cccc(Cl)c3-c3ccc(C(=O)N4CCC(c5ccccc5)CC4)cc3C(=O)O)nc2cc1F` [Example 110, (S)-2′-chloro-6′-(5-fluoro-6-methoxy-1H-1,3-benzodiazol-2-yl)-4-(4-phenylpiperidine-1-carbonyl)-[1,1′-biphenyl]-2-carboxylic acid], the half-maximal effective concentration (EC50) runs as follows: under setting [1], less than 10 nM; under setting [2], less than 10 nM.

Take `COCCNC(=O)c1ccc(-c2c(Cl)cccc2-c2nc3cc(F)c(OC)cc3[nH]2)c(C(=O)O)c1` [Example 111, (S)-2′-chloro-6′-(5-fluoro-6-methoxy-1H-1,3-benzodiazol-2-yl)-4-[(2-methoxyethyl)carbamoyl]-[1,1′-biphenyl]-2-carboxylic acid]: the EC50 under setting [2] was less than 10 nM.

As to `COc1cc2[nH]c(-c3cccc(Cl)c3-c3ccc(C(=O)NCCc4ccccc4)cc3C(=O)O)nc2cc1F` [Example 112, (S)-2′-chloro-6′-(5-fluoro-6-methoxy-1H-1,3-benzodiazol-2-yl)-4-[(2-phenylethyl)carbamoyl]-[1,1′-biphenyl]-2-carboxylic acid], the concentration giving a half-maximal response (EC50) by setting is: under setting [1], less than 10 nM; under setting [2], less than 10 nM.

With `COc1cc2[nH]c(-c3cccc(Cl)c3-c3ccc(C(=O)N4CCc5ccccc5C4)cc3C(=O)O)nc2cc1F` [Example 113, (S)-2′-chloro-6′-(5-fluoro-6-methoxy-1H-1,3-benzodiazol-2-yl)-4-(1,2,3,4-tetrahydroisoquinoline-2-carbonyl)-[1,1′-biphenyl]-2-carboxylic acid], the EC50 under setting [1] is less than 10 nM and the EC50 under setting [2] was less than 10 nM.

Regarding `COc1cc2[nH]c(-c3cccc(Cl)c3-c3ccc(C(=O)NCCC(C)C)cc3C(=O)O)nc2cc1F` [Example 114, (S)-2′-chloro-6′-(5-fluoro-6-methoxy-1H-1,3-benzodiazol-2-yl)-4-[(3-methylbutyl)carbamoyl]-[1,1′-biphenyl]-2-carboxylic acid], the EC50 is, setting by setting: under setting [1], less than 10 nM; under setting [2], less than 10 nM.

In the case of `COc1ccc(CNC(=O)c2ccc(-c3c(Cl)cccc3-c3nc4cc(F)c(OC)cc4[nH]3)c(C(=O)O)c2)cc1` [Example 115, (S)-2′-chloro-6′-(5-fluoro-6-methoxy-1H-1,3-benzodiazol-2-yl)-4-{[(4-methoxyphenyl)methyl]carbamoyl}-[1,1′-biphenyl}-2-carboxylic acid], the EC50 under setting [2] was 10 to 100 nM.

As for `COC(=O)CCNC(=O)c1ccc(-c2c(Cl)cccc2-c2nc3cc(F)c(OC)cc3[nH]2)c(C(=O)O)c1` [Example 116, (S)-2′-chloro-6′-(5-fluoro-6-methoxy-1H-1,3-benzodiazol-2-yl)-4-[(3-methoxy-3-oxopropyl)carbamoyl]-[1,1′-biphenyl]-2-carboxylic acid], the EC50 under setting [2] is 10 to 100 nM.

On to `COc1cc2[nH]c(-c3cccc(Cl)c3-c3ccc(C(=O)NCC(c4ccccc4)c4ccccc4)cc3C(=O)O)nc2cc1F` [Example 117, (S)-2′-chloro-4-[(2,2-diphenylethyl)carbamoyl]-6′-(5-fluoro-6-methoxy-1H-1,3-2-benzodiazol-2-yl)-[1,1′-biphenyl]-2-carboxylic acid], for which the EC50 reads like this: under setting [1], 10 to 100 nM; under setting [2], 10 to 100 nM.

Turning to `COc1cc2[nH]c(-c3cccc(Cl)c3-c3ccc(C(=O)N4CCN(C)CC4)cc3C(=O)O)nc2cc1F` [Example 118, (S)-2′-chloro-6′-(5-fluoro-6-methoxy-1H-1,3-benzodiazol-2-yl)-4-(4-methylpiperazine-1-carbonyl)-[1,1′-biphenyl]-2-carboxylic acid], the EC50 lay within 10 to 100 nM under setting [1] and 10 to 100 nM under setting [2].
